Tests used:
[1] = test system: kidney disease model rats; test: Action to depress blood pressure (tail cuff method); format: in vivo, Sprague-Dawley female rats; details: systolic, average, 20 mg/kg per os, two days from administration; control (water) 203
Procedure: The compounds of the present invention and the reference substance were forcedly administered per os to kidney disease model rats, and the action to depress blood pressure was observed. The kidney disease model rats were prepared by ligature of branches of renal artery in accordance with the conventional method, that is, the left hilum renalis of Sprague-Dawley female rats was exposed under anesthesia, and one of four secondary branches of renal artery was left unligated, while the remaining three branches were ligated, respectively. After a week, the hilum renalis (artery, vein, and ureter) of the right kidney were further ligated to thereby prepare the rats whose renal function was lowered to approximately 1/8 of the normal function. Each group consisted of eight rats. The drugs to be tested (20 mg/kg) were administered to each administering group, and only water was administered to control group. After two days from the administration, the systolic blood pressure was measured by the tail cuff method using a blood pressure measuring apparatus (UR5000; Ueda).

mice = test: Acute toxicity, single oral dose; format: in vivo
Procedure: Five-week-old ICR female mice (5 mice per group) were bred for acclimation for a week. Then, the compounds of the present invention were dissolved or dispersed in an aqueous solution of 0.5% methylcellulose, and orally administered to the mice in a single dosage (500 mg/kg).

[2] = biological target: T1, angiotensin II receptor subtype 2 (AT2) (Bos taurus, UniProt G5E6F7); test: Binding assay, angiotensin II receptor subtype 2 (AT2); parameters: species or system bovine (cerebellar cortex); details: 100 μM, AT2, bovine cerebellar cortex, 37° C. 1 hour; read-out: Binding inhibition % in 100 μm, AT2
T1 construct: receptor: from cerebellar cortex in bovine; from tissue; host or cells: bovine cerebellar cortex
T1 sequence (G5E6F7 1-362): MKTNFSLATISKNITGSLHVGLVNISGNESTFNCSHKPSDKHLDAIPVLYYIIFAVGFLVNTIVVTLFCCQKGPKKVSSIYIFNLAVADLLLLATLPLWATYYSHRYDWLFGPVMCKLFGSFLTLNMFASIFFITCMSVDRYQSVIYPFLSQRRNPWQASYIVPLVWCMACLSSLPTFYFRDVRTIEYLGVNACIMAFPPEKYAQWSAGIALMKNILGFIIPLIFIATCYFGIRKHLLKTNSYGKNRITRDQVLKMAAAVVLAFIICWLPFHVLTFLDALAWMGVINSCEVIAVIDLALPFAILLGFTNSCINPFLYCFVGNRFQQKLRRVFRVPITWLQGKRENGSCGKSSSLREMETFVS
Procedure: (§1) In this Example, the affinity to the angiotensin II receptor subtype 1 or subtype 2 was evaluated by a binding assay in accordance with the method described in Biochem. Pharmacol., 33, 4057-4062 (1984).
(§2) Specifically, the measurement of the total binding in the presence of each drug was performed as follows:
(§3) A mixture (final volume=0.25 ml) of a drug in a given concentration (the drug was dissolved in DMSO, and diluted to a double volume with a buffer attached to a drug discovery system to prepare sample for the assay; 0.025 ml), a tracer (0.025 ml), and receptors (0.2 ml) was incubated [in the case of the angiotensin II receptor subtype 1 (AT1), at room temperature for 3 hours, and in the case of the subtype 2 (AT2), at 37° C. for 1 hour]. Then, the reaction mixture was filtered with suction (GF/C filter was used in AT1, and GF/B filter was used in AT2). The filter papers after filtration with suction (the tracer bound to the receptors) were counted by a γ-well counter (ARC-500, Aloka). The non-specific bindings were measured by repeating the above method, except that a large excess amount of a displacer was added. The specific binding of the drug in the given concentration was calculated by subtracting the non-specific binding from the total binding, respectively.
(§4) In AT1 and AT2, the percentages to inhibit the bindings of radioactive ligands (tracer) to receptors by the drugs to be tested (IC50 value of concentration to show 50% inhibition, or binding inhibition % in 100 μM) were measured, using the drugs to be tested and control drugs in the given concentration.
receptor: from cerebellar cortex in bovine
tracer: ^125 ITyr^4angiotensin II
control drug: angiotensin II (human)
(displacer): angiotensin II (human)

[3] = test system: kidney disease model rats; test: Renal function indicatory value (action to kidney diseases); format: in vivo, Sprague-Dawley female rats; details: 20 mg/kg/day per os, two weeks; for Creatinine clearance: 24 hours urine, control 0.20; for Creatinine / Urea nitrogen: serum; for Creatinine: control 2.0; for Urea nitrogen: control 100
Procedure: The kidney disease model rats were prepared as in Example 115. Twenty-five groups (8 rats per group) were sleeked in a manner so that there were no major differences between each group in the serum creatinine value and the urea nitrogen value indicating renal function. The rats in each group were allowed to freely take up feed and water. […] To the rats in the control group, only water was forcedly administered per os every day. After two weeks, 0.2 ml of blood was collected from the carotid artery of the rat under anesthesia, and centrifuged to obtain serum. Using 25 μl of the serum, serum creatinine (Scr) was measured by a creatinine analytical instrument (Beckman). Using 10 μl of the serum, urea nitrogen (BUN) was measured by a BUN analytical instrument (Beckman). Creatinine clearance was evaluated as follows:
After serum creatinine measurement, rats were placed in urinary metabolic cages for 24 hours to collect urine. Urinary creatine concentration (Ucr) was measured by a creatinine analytical instrument, and total volume of urination (Uvol) was also measured. Creatinine clearance (CCr) was calculated by the following formula: [formula]

[4] = test system: kidney disease model rats; test: Action to survival time of kidney diseased animals; format: in vivo, Sprague-Dawley female rats; details: 20 mg/kg/day per os, observation eight weeks (upper limit); control 5.0
Procedure: The kidney disease model rats were prepared as in Example 115. Twenty-five groups (8 rats per group) were prepared in a manner so that there was no major difference between the groups in the serum creatinine value and the urea nitrogen value indicating renal function. The rats in each group were allowed to freely take up feed and water. […] To the rats in the control group, only water was forcedly administered per os every day. If kidney diseases are aggravated, the rat will die of uremia. Thus, the survival time was observed as comprehensive indication of the improvement effect on the kidney diseases. The observation period was eight weeks. Thus if all rats survived, the average survival time is eight weeks and it is an upper limit.

[5] = biological target: T2, angiotensin II receptor subtype 1 (AT1) (Oryctolagus cuniculus, UniProt P34976); test: Binding assay, angiotensin II receptor subtype 1 (AT1); parameters: species or system rabbit (adrenal glands); details: for inhibition at 100 µM: AT1, rabbit adrenal glands; for IC50: tracer 3H angiotensin II, room temperature 3 hours, read-out: IC50 AT1
T2 construct: receptor: from adrenal glands in rabbits; from tissue; host or cells: rabbit adrenal glands
T2 sequence (P34976 1-359): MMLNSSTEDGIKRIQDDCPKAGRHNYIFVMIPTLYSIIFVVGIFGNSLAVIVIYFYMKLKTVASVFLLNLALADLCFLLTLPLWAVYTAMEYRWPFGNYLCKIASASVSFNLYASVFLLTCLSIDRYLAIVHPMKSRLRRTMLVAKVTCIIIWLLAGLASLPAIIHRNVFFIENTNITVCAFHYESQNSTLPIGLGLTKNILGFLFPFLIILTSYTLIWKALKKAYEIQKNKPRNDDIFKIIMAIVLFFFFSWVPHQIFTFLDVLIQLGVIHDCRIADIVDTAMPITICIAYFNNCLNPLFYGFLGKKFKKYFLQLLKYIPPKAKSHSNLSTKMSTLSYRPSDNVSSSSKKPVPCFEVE
Procedure: as §1, §2, §3, §4

SMILES: CCCCCN(Cc1ccc(C(=O)O)cc1)c1cccc(C(=O)N2CCOCC2)c1 [Compound No. 158, 3-[N-(4-carboxyphenyl)methyl]-n-amylaminobenzoic acid morpholide]
- Blood pressure [1]: 190 mmHg
- Number of deaths/number of survivals (mice; mouse, in vivo, po, 500 mg/kg): 0/5
- inhibition at 100 µM [2]: 0%
- Creatinine clearance [3]: 0.37 mL/min
- Creatinine [3]: 1.7 mg/dL
- Urea nitrogen [3]: 74 mg/dL
- Average survival time [4]: 7.2 weeks
- inhibition at 100 µM [5]: 18%

SMILES: CCCCCN(C)c1c(NCc2ccc(C(=O)O)cc2)cc(S(=O)(=O)N2CCOCC2)cc1NC(=O)C(c1ccccc1)c1ccccc1 [Compound No. 598, 4-[[4-(N-n-amyl-N-methyl)amino-3-[(4-carboxylphenyl)methyl]amino-5-(diphenylacetamido)benzene]sulfonyl]morpholine]
- Blood pressure [1]: 202 mmHg
- Number of deaths/number of survivals (mice; mouse, in vivo, po, 500 mg/kg): 0/5
- inhibition at 100 µM [2]: 0%
- Creatinine clearance [3]: 0.35 mL/min
- Creatinine [3]: 1.6 mg/dL
- Urea nitrogen [3]: 80 mg/dL
- Average survival time [4]: 7.2 weeks
- inhibition at 100 µM [5]: 36%

SMILES: CCCCCN(Cc1ccc(C(=O)O)cc1)c1cc(C(=O)N2CCOCC2)ccn1 [Compound No. 535, 2-[N-n-amyl-N-(4-carboxyphenyl)methyl]aminoisonicotinic acid morpholide]
- Blood pressure [1]: 195 mmHg
- Number of deaths/number of survivals (mice; mouse, in vivo, po, 500 mg/kg): 0/5
- inhibition at 100 µM [2]: 0%
- Creatinine clearance [3]: 0.38 mL/min
- Creatinine [3]: 1.5 mg/dL
- Urea nitrogen [3]: 72 mg/dL
- Average survival time [4]: 7.6 weeks
- IC50 [5]: 3.8 µM

SMILES: CCCCC(=O)N(Cc1ccc(C(=O)O)cc1)c1cccc(C(=O)N2CCOCC2)c1 [Compound No. 90, 3-[N-(4-carboxyphenyl)methyl]valeramidobenzoic acid morpholide]
- Blood pressure [1]: 194 mmHg
- Number of deaths/number of survivals (mice; mouse, in vivo, po, 500 mg/kg): 0/5
- inhibition at 100 µM [2]: 0%
- Creatinine clearance [3]: 0.38 mL/min
- Creatinine [3]: 1.5 mg/dL
- Urea nitrogen [3]: 70 mg/dL
- Average survival time [4]: 7.6 weeks
- inhibition at 100 µM [5]: 30%

SMILES: CCCCC(=O)N(Cc1ccc(C(=O)O)cc1)c1cc(C(=O)N2CCOCC2)ccn1 [Compound No. 467, 2-N-[[(4-carboxyphenyl)methyl]valeramido]isonicotinic acid morpholide]
- Blood pressure [1]: 200 mmHg
- Number of deaths/number of survivals (mice; mouse, in vivo, po, 500 mg/kg): 0/5
- inhibition at 100 µM [2]: 0%
- Creatinine clearance [3]: 0.25 mL/min
- Creatinine [3]: 1.8 mg/dL
- Urea nitrogen [3]: 74 mg/dL
- Average survival time [4]: 7.0 weeks
- inhibition at 100 µM [5]: 16%

SMILES: CCCNC(=O)N(Cc1ccc(C(=O)O)cc1)c1cc(C(=O)N2CCOCC2)ccc1N(C)C [Compound No. 225]
- Blood pressure [1]: 195 mmHg
- Number of deaths/number of survivals (mice; mouse, in vivo, po, 500 mg/kg): 0/5
- inhibition at 100 µM [2]: 0%
- Creatinine clearance [3]: 0.25 mL/min
- Creatinine [3]: 1.8 mg/dL
- Urea nitrogen [3]: 73 mg/dL
- Average survival time [4]: 7.0 weeks
- inhibition at 100 µM [5]: 4%

SMILES: CCCCC(=O)Nc1ccc(C(=O)N2CCOCC2)cc1N(Cc1ccc(-c2ccccc2-c2nn[nH]n2)cc1)Cc1ccc(-c2ccccc2-c2nn[nH]n2)cc1 [Compound No. 594, 3-[di-[2'-(1H-tetrazol-5-yl)biphenyl-4-yl]methylamino]-4-valeramidobenzoicacid morpholide]
- Blood pressure [1]: 194 mmHg
- Number of deaths/number of survivals (mice; mice, single oral 500 mg/kg, observed for 6 days, 5 per group): 0/5
- inhibition at 100 µM [2]: 0%
- Creatinine clearance [3]: 0.30 mL/min
- Creatinine [3]: 1.7 mg/dL
- Urea nitrogen [3]: 77 mg/dL
- Average survival time [4]: 6.5 weeks
- IC50 [5]: 32 µM

— patent US5739131A, “Benzene derivatives and pharmaceutical composition” (Kureha Chemical Industry Co., Ltd., priority 1994, dated 1998)
